{"source": "patent US5696115A", "about": "“Method for treating nicotine withdrawal” (Eli Lilly and Company, priority 1995, dated 1997)", "key": {"[1]": {"tested_on": "muscarinic cholinergic receptor", "assay": "pharmacological studies, muscarinic cholinergic receptor activity"}, "[2]": {"tested_on": "rats", "assay": "in vivo observation, overdose in rats", "details": "rats exposed to an overdose"}, "[3]": {"tested_on": "clinical subjects", "assay": "clinical observation of pupil response", "assay_type": "in vivo, human", "details": "rather than the expected pupilary dilation"}, "[4]": {"assay": "detection of radiolabelled compound in saliva", "assay_type": "in vivo"}, "[5]": {"details": "known; cited from earlier work"}, "[6]": {"tested_on": "people addicted to nicotine", "details": "cited from earlier work"}}}
{"smiles": "Cc1cc2c(s1)Nc1ccccc1N=C2N1CCN(C)CC1", "note": "[2-methyl-4-(4-methyl-1-piperazinyl)-10H-thieno[2,3-b][1,5]benzodiazepine]", "values": [{"measurement": "muscarinic receptor subtype profile", "setting": "[1]; in vivo animal and clinical observations", "value": "complex muscarinic receptor subtype profile"}, {"measurement": "muscarinic cholinergic receptor activity", "setting": "[1]; pharmacological studies", "value": "has muscarinic cholinergic receptor activity"}, {"measurement": "salivation", "setting": "[2]", "value": "significant salivation"}, {"measurement": "pupilary response", "setting": "[3]", "value": "pupilary constriction"}, {"measurement": "detection in saliva", "setting": "[4]", "value": "can be detected in the saliva"}, {"measurement": "antipsychotic activity", "setting": "[5]", "value": "can provide antipsychotic activity"}, {"measurement": "extrapyramidal symptoms", "setting": "[5]", "value": "less likely to induce extrapyramidal symptoms"}]}
{"smiles": "Clc1cccc(Cl)c1N=C1NCCN1", "note": "[clonidine]", "values": [{"measurement": "effectiveness versus placebo", "setting": "[6]; clonidine treatment for six weeks", "value": "more effective than placebo, but only for women"}]}
{"smiles": "CNC1(C)C2CCC(C2)C1(C)C", "note": "(stereo not shown) [mecamylamine]", "values": [{"measurement": "undesirable side effects", "setting": "[6]; receptor antagonist therapy", "value": "other undesirable side effects"}, {"measurement": "effect on tobacco consumption", "setting": "[6]; receptor antagonist therapy, short term effect", "value": "increasing tobacco consumption"}]}
